# In patent publication US12584098B2, “In-vitro model of the human gut microbiome and uses thereof in the analysis of the impact of xenobiotics” (EUROPEAN MOLECULAR BIOLOGY LABORATORY, priority 2018, dated 2026):
# Read-outs that look alike come from different tables or passages of the source.
# Columns and labels:
# [1] = tested on: gut bacterial strains; test: Testing for anticommensal activity at higher concentrations (validation of side effect-based predictions); type: cell-based
# Method: Compounds of interest were purchased from independent sources and if possible, dissolved at 5 mM concentration in mGAM. Lower concentrations were used when solubility limit was reached. Solutions were sterile filtered, and three 4-fold serial dilutions were arranged in 96 well plates, aiming at covering a broad range of drug concentrations. Inoculation and growth curve acquisition was performed as described for the MIC determination experiments.
# [2] = tested on: E. coli IAI1; settings: 50 μM drug
# Method: (§2) For all drugs, a fixed concentration of 50 µM was used, which in most cases approximates the concentration of one pill (0.02-3 mmol) diluted in the volume of the gut (approx. 2.5 L). One bacteria-free control per plate and drug, but triplicates for each bacteria-drug interaction was screened. The screen was carried out under anaerobic conditions in 96-well plates (NUNCLON Delta Surface 163320, NUNC) with 150 μl GMM as the growth medium sealed with a Breathe-Easy® sealing membrane (Z380059, SIGMA-ALDRICH). Plates containing 100 μl of the medium and 75 μM of the drug were prepared beforehand, stored at −20° C. and used as needed. Frozen plates were introduced into the anaerobic chamber the evening before inoculation. Wells were inoculated with 50 μl of a second passage culture with an end OD578 of 0.01. Growth was monitored with measurements of the optical density at 578 nm using an Eon Microplate Spectrophotometer (BIOTEK) approximately every 2 h for the first 10 h, then approximately every 6 h. After 48 h, plates were removed from the anaerobic chamber and the bacteria spinned down (4000 rpm, 10 min). […] All liquid handling outside of anaerobic chamber was done using a liquid handling robot (FXp, BIOMEK). […] The bacteria-drug interaction screen was conducted with two biological replicates.
# [3] = tested on: C. saccharolyticum; settings: 50 μM drug
# Method: as §2
# [4] = tested on: gut bacterial strains (hits of the interaction screen); test: Depletion-mode assay: supernatant vs total extraction; settings: 50 μM drug, 48 h, GMM
# Method: If the drug is only depleted in the supernatant, the drug is likely a bioaccumulated, whereas if the drug is also depleted in the extraction of the total fraction a biodegradation is likely.
# (§1) All liquid chromatography methods are run on a Waters Acquity UPLC H-Class instrument with a PDA detector and a quaternary solvent system. All established methods are 5 minutes long, have a flow rate of 0.5 ml/min and run on a CSH C18 column (Waters, Part number 186005297) in reverse mode. The column is heated to 40° C. and samples are kept at 6° C. All methods use 50% acetonitrile (Biosolve, ULC grade) for washing buffer, and 50% methanol (Biosolve, ULC grade) for purging buffer. As organic mobile phase acetonitrile was used. The assay was optimized using only two buffers besides water as hydrophilic mobile phase: 5 mM formic acid (Biosolve, ULC grade) of pH 3.2 and 5 mM ammonium formate (Ammonium hydroxide, ACS grade, Sigma) with pH adjusted to 8.3 using the formic acid buffer.
# Bacteria from second passage culture are inoculated with an OD578 of 0.01 in 1 mL GMM containing 50 μM drug of interest in 2 mL eppendorf tubes and incubated for 48 h while shaking. After finishing growth, the cultures were removed from the anaerobic chamber. […]
# [5] = tested on: 25 gut bacterial strains; test: Bacteria-drug interaction screen: drug depletion from supernatant (UV-UPLC); settings: 50 μM drug, 48 h anaerobic growth
# Method: as §1
# For all drugs, a fixed concentration of 50 µM was used, which in most cases approximates the concentration of one pill (0.02-3 mmol) diluted in the volume of the gut (approx. 2.5 L). One bacteria-free control per plate and drug, but triplicates for each bacteria-drug interaction was screened. […] Growth was monitored with measurements of the optical density at 578 nm using an Eon Microplate Spectrophotometer (BIOTEK) approximately every 2 h for the first 10 h, then approximately every 6 h. […]
# [6] = cited from earlier work
# [7] = tested on: 25 gut bacterial strains; test: Growth effect (OD578) in the bacteria-drug interaction screen; type: cell-based, human gut bacteria; settings: 50 μM drug, 25 strains
# Method: as §2
compound,measurement,setting,value
CN(C)C(=N)N=C(N)N [Metformin],anticommensal activity at concentrations higher than the 20 μM of the screen,[1],verified
CNCC[C@H](Oc1cccc2ccccc12)c1cccs1 [duloxetine],effect on growth of E. coli IAI1,[2],inhibiting growth
same,effect on growth of C. saccharolyticum,[3],inhibiting growth
CC(C)(O)c1ccccc1CC[C@@H](SCC1(CC(=O)O)CC1)c1cccc(/C=C/c2ccc3ccc(Cl)cc3n2)c1 [montelukast],predominant mode of depletion,[4],bioaccumulation
same,depletion mode: bioaccumulation or biodegradation (in words),[4]; supernatant vs total extraction,bioaccumulated and then partially degraded by several bacterial strains
O=C1[C@H](CC[C@H](O)c2ccc(F)cc2)[C@@H](c2ccc(O)cc2)N1c1ccc(F)cc1 [ezetimibe],depletion of drug from the medium by bacterial strains (in words),[5],interacting only with a few bacterial strains
CC[C@@H]([C@H](C)O)n1ncn(-c2ccc(N3CCN(c4ccc(OC[C@@H]5CO[C@@](Cn6cncn6)(c6ccc(F)cc6F)C5)cc4)CC3)cc2)c1=O [posaconazole],maximum concentration in the duodenum,[6]; 40 mg (57 μmol) delivered to the stomach in acidic solution,26.3 ± 10.3 µM
same,maximum concentration in the duodenum,[6]; 40 mg (57 μmol) delivered to the stomach in neutral solution,13.6 ± 5.8 µM
C[C@H](Cn1cnc2c(N)ncnc21)OCP(=O)(O)O [tenofovir],effect on bacterial growth in the screen,[7],nor affecting bacterial growth
same,depletion of drug from the medium by bacterial strains (in words),[5],neither being depleted
